Laboratory results reported in PubChem BioAssay (NCI).
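96-well plates; 48 h exposure; 5 concentrations. Endpoints by linear interpolation between flanking doses. Not reached: highest tested concentration assigned. Abbreviation: GI50, concentration required for 50% inhibition of growth. TGI marks complete inhibition of growth.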

Tests used:
Assay in all cases: DTP human tumour cell line panel, 48 h; in the data active = GI50 below about 0.43 µM; inactive = the rest
CCRF-CEM leukemia = tested on: CCRF-CEM leukemia
SW-620 colon = tested on: SW-620 colon
NCI-H23 lung = tested on: NCI-H23 lung
OVCAR-3 ovarian = tested on: OVCAR-3 ovarian
SNB-19 CNS = tested on: SNB-19 CNS
U251 CNS = tested on: U251 CNS
SK-MEL-5 melanoma = tested on: SK-MEL-5 melanoma
SF-268 CNS = tested on: SF-268 CNS
MDA-MB-435 = tested on: MDA-MB-435
ACHN renal = tested on: ACHN renal
HS 578T breast = tested on: HS 578T breast
CAKI-1 renal = tested on: CAKI-1 renal
NCI-H522 lung = tested on: NCI-H522 lung
OVCAR-8 ovarian = tested on: OVCAR-8 ovarian
NCI-H226 lung = tested on: NCI-H226 lung
UACC-62 melanoma = tested on: UACC-62 melanoma
HOP-92 NSCLC = tested on: HOP-92 NSCLC
IGROV1 ovarian = tested on: IGROV1 ovarian
RPMI-8226 leukemia = tested on: RPMI-8226 leukemia
MALME-3M melanoma = tested on: MALME-3M melanoma
MOLT-4 leukemia = tested on: MOLT-4 leukemia
SR leukemia = tested on: SR leukemia
MDA-MB-231 breast = tested on: MDA-MB-231 breast
EKVX NSCLC = tested on: EKVX NSCLC
PC-3 prostate = tested on: PC-3 prostate
K-562 leukemia = tested on: K-562 leukemia
HOP-62 NSCLC = tested on: HOP-62 NSCLC
OVCAR-4 ovarian = tested on: OVCAR-4 ovarian
MCF7 breast = tested on: MCF7 breast
DU-145 prostate = tested on: DU-145 prostate
SK-MEL-2 melanoma = tested on: SK-MEL-2 melanoma
KM12 colon = tested on: KM12 colon
SF-295 CNS = tested on: SF-295 CNS
M14 melanoma = tested on: M14 melanoma
TK-10 renal = tested on: TK-10 renal
SN12C renal = tested on: SN12C renal
786-0 renal = tested on: 786-0 renal
NCI-H460 lung = tested on: NCI-H460 lung
HCT-116 colon = tested on: HCT-116 colon
SK-MEL-28 melanoma = tested on: SK-MEL-28 melanoma
RXF 393 renal = tested on: RXF 393 renal
BT-549 breast = tested on: BT-549 breast
UO-31 renal = tested on: UO-31 renal
A549 NSCLC = tested on: A549 NSCLC
LOX IMVI melanoma = tested on: LOX IMVI melanoma
SK-OV-3 ovarian = tested on: SK-OV-3 ovarian
HCT-15 colon = tested on: HCT-15 colon
NCI/ADR-RES ovarian = tested on: NCI/ADR-RES ovarian
COLO 205 colon = tested on: COLO 205 colon
OVCAR-5 ovarian = tested on: OVCAR-5 ovarian
HT29 colon = tested on: HT29 colon
T-47D breast = tested on: T-47D breast
HL-60(TB) leukemia = tested on: HL-60(TB) leukemia
UACC-257 melanoma = tested on: UACC-257 melanoma
A498 renal = tested on: A498 renal
HCC-2998 colon = tested on: HCC-2998 colon
SNB-75 CNS = tested on: SNB-75 CNS

O=C1C(Cl)=C(Nc2cccc(O)c2)C(=O)N1CCc1ccccc1
57.8 µM: TGI (HCT-15 colon)
32.6 µM: TGI (SN12C renal)
37.6 µM: TGI (RPMI-8226 leukemia)
64.3 µM: TGI (SR leukemia)
39.6 µM: TGI (LOX IMVI melanoma)
82.5 µM: TGI (HT29 colon)
51.1 µM: TGI (OVCAR-8 ovarian)
37.1 µM: TGI (MDA-MB-435)
47.5 µM: TGI (ACHN renal)
56.3 µM: TGI (CAKI-1 renal)
29.2 µM: TGI (NCI-H522 lung)
44.4 µM: TGI (MDA-MB-231 breast)
33 µM: TGI (MALME-3M melanoma)
34 µM: TGI (KM12 colon)
73.3 µM: TGI (HCT-116 colon)
> 100 µM: TGI (SK-OV-3 ovarian) | TGI (COLO 205 colon) | TGI (T-47D breast)
35.4 µM: TGI (IGROV1 ovarian)
48.4 µM: TGI (TK-10 renal)
33.7 µM: TGI (SK-MEL-2 melanoma)
46.8 µM: TGI (OVCAR-5 ovarian)
71.4 µM: TGI (RXF 393 renal)
77.5 µM: TGI (SW-620 colon)
46.4 µM: TGI (A549 NSCLC)
34.3 µM: TGI (OVCAR-3 ovarian)
46.6 µM: TGI (SF-295 CNS)
33.6 µM: TGI (MCF7 breast)
38.4 µM: TGI (HOP-62 NSCLC)
40.5 µM: TGI (HS 578T breast)
40.9 µM: TGI (EKVX NSCLC)
59 µM: TGI (MOLT-4 leukemia)
49.4 µM: TGI (SNB-19 CNS)
47.1 µM: TGI (BT-549 breast)
38 µM: TGI (SK-MEL-5 melanoma)
36.4 µM: TGI (NCI-H23 lung) | TGI (HOP-92 NSCLC)
55.3 µM: TGI (OVCAR-4 ovarian)
62.7 µM: TGI (PC-3 prostate)
36.6 µM: TGI (786-0 renal)
37.9 µM: TGI (M14 melanoma)
69.4 µM: TGI (CCRF-CEM leukemia)
42.2 µM: TGI (SF-268 CNS)
32.5 µM: TGI (DU-145 prostate)
39.8 µM: TGI (NCI-H460 lung)
49 µM: TGI (NCI/ADR-RES ovarian)
42.1 µM: TGI (U251 CNS)
45.6 µM: TGI (NCI-H226 lung)
63.9 µM: TGI (K-562 leukemia)
36.8 µM: TGI (UO-31 renal)
29.1 µM: TGI (UACC-62 melanoma)
40.8 µM: TGI (SK-MEL-28 melanoma)
inactive: GI50 (CCRF-CEM leukemia) 12.6 µM | GI50 (SW-620 colon) 30.9 µM | GI50 (NCI-H23 lung) 17.7 µM | GI50 (OVCAR-3 ovarian) 15.4 µM | GI50 (SNB-19 CNS) 22.6 µM | GI50 (U251 CNS) 19.1 µM | GI50 (SK-MEL-5 melanoma) 20.2 µM | GI50 (SF-268 CNS) 17 µM | GI50 (MDA-MB-435) 15.7 µM | GI50 (ACHN renal) 22.9 µM | GI50 (HS 578T breast) 17.5 µM | GI50 (CAKI-1 renal) 22.5 µM | GI50 (NCI-H522 lung) 13.2 µM | GI50 (OVCAR-8 ovarian) 21.5 µM | GI50 (NCI-H226 lung) 22 µM | GI50 (UACC-62 melanoma) 13.9 µM | GI50 (HOP-92 NSCLC) 15.9 µM | GI50 (IGROV1 ovarian) 15 µM | GI50 (RPMI-8226 leukemia) 5.03 µM | GI50 (MALME-3M melanoma) 16.2 µM | GI50 (MOLT-4 leukemia) 9.4 µM | GI50 (SR leukemia) 4.61 µM | GI50 (MDA-MB-231 breast) 23.3 µM | GI50 (EKVX NSCLC) 19.3 µM | GI50 (PC-3 prostate) 22.3 µM | GI50 (K-562 leukemia) 16.8 µM | GI50 (HOP-62 NSCLC) 19.2 µM | GI50 (OVCAR-4 ovarian) 20.1 µM | GI50 (MCF7 breast) 14.4 µM | GI50 (DU-145 prostate) 15.3 µM | GI50 (SK-MEL-2 melanoma) 14.5 µM | GI50 (KM12 colon) 15.5 µM | GI50 (SF-295 CNS) 21.8 µM | GI50 (M14 melanoma) 17.7 µM | GI50 (TK-10 renal) 23.1 µM | GI50 (SN12C renal) 16 µM | GI50 (786-0 renal) 19.2 µM | GI50 (NCI-H460 lung) 18 µM | GI50 (HCT-116 colon) 24.3 µM | GI50 (SK-MEL-28 melanoma) 19.8 µM | GI50 (RXF 393 renal) 25.9 µM | GI50 (BT-549 breast) 17.9 µM | GI50 (UO-31 renal) 16.7 µM | GI50 (A549 NSCLC) 20.6 µM | GI50 (LOX IMVI melanoma) 16.9 µM | GI50 (SK-OV-3 ovarian) 32.1 µM | GI50 (HCT-15 colon) 22.4 µM | GI50 (NCI/ADR-RES ovarian) 20.1 µM | GI50 (COLO 205 colon) 33.2 µM | GI50 (OVCAR-5 ovarian) 20.7 µM | GI50 (HT29 colon) 24.3 µM | GI50 (T-47D breast) 40.5 µM

COC1CCN(N(C)C)O1 (centres undefined)
> 100 µM: TGI (CCRF-CEM leukemia) | TGI (HL-60(TB) leukemia) | TGI (UACC-257 melanoma) | TGI (SW-620 colon) | TGI (NCI-H23 lung) | TGI (OVCAR-3 ovarian) | TGI (SNB-19 CNS) | TGI (U251 CNS) | TGI (SK-MEL-5 melanoma) | TGI (SF-268 CNS) | TGI (MDA-MB-435) | TGI (ACHN renal) | TGI (HS 578T breast) | TGI (CAKI-1 renal) | TGI (NCI-H522 lung) | TGI (OVCAR-8 ovarian) | TGI (NCI-H226 lung) | TGI (UACC-62 melanoma) | TGI (IGROV1 ovarian) | TGI (RPMI-8226 leukemia) | TGI (MALME-3M melanoma) | TGI (A498 renal) | TGI (MOLT-4 leukemia) | TGI (SR leukemia) | TGI (MDA-MB-231 breast) | TGI (EKVX NSCLC) | TGI (PC-3 prostate) | TGI (K-562 leukemia) | TGI (HOP-62 NSCLC) | TGI (OVCAR-4 ovarian) | TGI (MCF7 breast) | TGI (DU-145 prostate) | TGI (SK-MEL-2 melanoma) | TGI (KM12 colon) | TGI (SF-295 CNS) | TGI (M14 melanoma) | TGI (TK-10 renal) | TGI (SN12C renal) | TGI (786-0 renal) | TGI (NCI-H460 lung) | TGI (HCT-116 colon) | TGI (SK-MEL-28 melanoma) | TGI (HCC-2998 colon) | TGI (RXF 393 renal) | TGI (BT-549 breast) | TGI (UO-31 renal) | TGI (A549 NSCLC) | TGI (LOX IMVI melanoma) | TGI (HCT-15 colon) | TGI (SNB-75 CNS) | TGI (NCI/ADR-RES ovarian) | TGI (COLO 205 colon) | TGI (OVCAR-5 ovarian) | TGI (HT29 colon) | TGI (T-47D breast)
